Activity calls are given as the source filed them. The rule behind the calls is not given here.
System: CCRIS mutagenicity, Ames/micronucleus/aberration tests
Assay: CCRIS mutagenicity studies
[1] = Test System: AMES SALMONELLA TYPHIMURIUM, Strain/Indicator: TA98, Metabolic Activation: NONE, Method: PREINCUBATION
[2] = Test System: AMES SALMONELLA TYPHIMURIUM, Strain/Indicator: TA98, Metabolic Activation: NONE, Method: SUSPENSION/PLATE
[3] = Test System: AMES SALMONELLA TYPHIMURIUM, Strain/Indicator: TA100, Metabolic Activation: NONE, Method: PREINCUBATION
[4] = Test System: AMES SALMONELLA TYPHIMURIUM, Strain/Indicator: TA100, Metabolic Activation: NONE, Method: SUSPENSION/PLATE
[5] = Test System: AMES SALMONELLA TYPHIMURIUM, Strain/Indicator: TA100, Metabolic Activation: NONE, Method: STANDARD PLATE
[6] = Test System: CHINESE HAMSTER V-79, Strain/Indicator: V-79 (HPRT)/6-THIOGUANINE, Metabolic Activation: NONE

SMILES: O=Cc1ccc([N+](=O)[O-])cc1[N+](=O)[O-]
- mutagenic call (Test System: AMES SALMONELLA TYPHIMURIUM, Strain/Indicator: TA98(1,8-DNP6), Metabolic Activation: NONE, Method: SUSPENSION/PLATE): active; positive
- mutagenic call (Test System: AMES SALMONELLA TYPHIMURIUM, Strain/Indicator: TA98(NR), Metabolic Activation: NONE, Method: SUSPENSION/PLATE): active; positive
- mutagenic call [1]: active; positive
- mutagenic call [2]: active; positive
- mutagenic call (Test System: AMES SALMONELLA TYPHIMURIUM, Strain/Indicator: TA98, Metabolic Activation: RAT, LIVER, S-9, PHENOBARBITAL AND 5,6-BENZOFLAVONE, Method: PREINCUBATION): active; positive
- mutagenic call (Test System: AMES SALMONELLA TYPHIMURIUM, Strain/Indicator: TA100(1,8-DNP6), Metabolic Activation: NONE, Method: SUSPENSION/PLATE): active; positive
- mutagenic call (Test System: AMES SALMONELLA TYPHIMURIUM, Strain/Indicator: TA100(NR), Metabolic Activation: NONE, Method: SUSPENSION/PLATE): active; positive
- mutagenic call [3]: active; positive
- mutagenic call [4]: active; positive
- mutagenic call (Test System: AMES SALMONELLA TYPHIMURIUM, Strain/Indicator: TA100, Metabolic Activation: RAT, LIVER, S-9, PHENOBARBITAL AND 5,6-BENZOFLAVONE, Method: PREINCUBATION): active; positive

SMILES: N#Cc1ccc(CCl)cc1
- mutagenic call [5]: inactive; negative

SMILES: Cn1ccnc1N=O
- mutagenic call [5]: active; positive

SMILES: COS(=O)(=O)c1ccc(C)cc1
- mutagenic call (End Point: IN VITRO MICRONUCLEUS, Test System: MOUSE LYMPHOMA L5178Y CELLS, Metabolic Activation: NONE): active; positive
- mutagenic call (End Point: IN VITRO MICRONUCLEUS, Test System: MOUSE LYMPHOMA L5178Y CELLS, Metabolic Activation: RAT, LIVER, S-9): active; positive
- mutagenic call (End Point: In vitro micronucleus, Test System: Chinese Hamster Ovary (CHO-WBL) cells, Metabolic Activation: None): active; positive (p<0.01)
- mutagenic call [5]: active; positive
- mutagenic call (Test System: AMES SALMONELLA TYPHIMURIUM, Strain/Indicator: TA100, Metabolic Activation: RAT, LIVER, S-9, Method: STANDARD PLATE): active; positive

SMILES: O[C@@H]1C=C2c3ccccc3-c3cccc(c32)[C@H]1O
- mutagenic call (Test System: AMES SALMONELLA TYPHIMURIUM, Strain/Indicator: TM677, Metabolic Activation: NONE, Method: PREINCUBATION): active; positive
- mutagenic call (Test System: AMES SALMONELLA TYPHIMURIUM, Strain/Indicator: TM677, Metabolic Activation: RAT, LIVER, POSTMITOCHONDRIAL SUPERNATANT, AROCLOR 1254, Method: PREINCUBATION): active; positive

SMILES: Cc1ccc2c(c1)C(C)c1cc(C)ccc1-2
- mutagenic call (Test System: AMES SALMONELLA TYPHIMURIUM, Strain/Indicator: TA98, Metabolic Activation: RAT, LIVER, S-9, AROCLOR 1254, Method: STANDARD PLATE): inactive; negative
- mutagenic call (Test System: AMES SALMONELLA TYPHIMURIUM, Strain/Indicator: TA100, Metabolic Activation: RAT, LIVER, S-9, AROCLOR 1254, Method: STANDARD PLATE): inactive; negative

SMILES: OC1=c2c(O)cc3cccc4ccc(c2c43)C23CCCCC12O3 (stereo not drawn)
- mutagenic call (Test System: CHINESE HAMSTER V-79, Strain/Indicator: V-79/8-AZAGUANINE, Metabolic Activation: NONE, Method: STANDARD PLATE): active; positive

SMILES: COc1nsc2ccc([N+](=O)[O-])cc12
- mutagenic call [5]: active; positive

SMILES: CCn1cc(C(=O)O)c(=O)c2cc(F)c(N3CCN(C)CC3)cc21
- mutagenic call (Test System: AMES SALMONELLA TYPHIMURIUM, Strain/Indicator: TA102, Metabolic Activation: NONE, Method: STANDARD PLATE): active; positive
- mutagenic call [6]: inactive; negative

SMILES: NC(=O)c1nnn(Cc2cc(Cl)c(C(=O)c3ccc(Cl)cc3)c(Cl)c2)c1N
- mutagenic call (Test System: Mouse lymphoma, Strain/Indicator: L5178Y (tk+/tk-), Metabolic Activation: None, Method: Suspension/plate): inactive; inconclusive (previous evaluation negative)
- mutagenic call (Test System: Mouse lymphoma, Strain/Indicator: L5178Y (tk+/tk-), Metabolic Activation: Rat, Liver, S-9, Aroclor 1254, Method: Suspension/plate): inactive; negative

SMILES: COC(=O)CC(=O)OC
- mutagenic call [1]: inactive; negative
- mutagenic call (Test System: AMES SALMONELLA TYPHIMURIUM, Strain/Indicator: TA98, Metabolic Activation: RAT LIVER S-9, PHENOBARBITAL AND BETA-NAPHTHOFLAVONE, Method: PREINCUBATION): inactive; negative
- mutagenic call [3]: inactive; negative
- mutagenic call (Test System: AMES SALMONELLA TYPHIMURIUM, Strain/Indicator: TA100, Metabolic Activation: RAT LIVER S-9, PHENOBARBITAL AND BETA-NAPHTHOFLAVONE, Method: PREINCUBATION): inactive; negative
- mutagenic call (Test System: AMES SALMONELLA TYPHIMURIUM, Strain/Indicator: TA1535, Metabolic Activation: NONE, Method: PREINCUBATION): inactive; negative
- mutagenic call (Test System: AMES SALMONELLA TYPHIMURIUM, Strain/Indicator: TA1535, Metabolic Activation: RAT LIVER S-9, PHENOBARBITAL AND BETA-NAPHTHOFLAVONE, Method: PREINCUBATION): inactive; negative
- mutagenic call (Test System: AMES SALMONELLA TYPHIMURIUM, Strain/Indicator: TA1537, Metabolic Activation: NONE, Method: PREINCUBATION): inactive; negative
- mutagenic call (Test System: AMES SALMONELLA TYPHIMURIUM, Strain/Indicator: TA1537, Metabolic Activation: RAT LIVER S-9, PHENOBARBITAL AND BETA-NAPHTHOFLAVONE, Method: PREINCUBATION): inactive; negative
- mutagenic call (Test System: E.COLI, Strain/Indicator: WP2UVRA/PKM101, Metabolic Activation: NONE, Method: PREINCUBATION): inactive; negative
- mutagenic call (Test System: E.COLI, Strain/Indicator: WP2UVRA/PKM101, Metabolic Activation: RAT LIVER S-9, PHENOBARBITAL AND BETA-NAPHTHOFLAVONE, Method: PREINCUBATION): inactive; negative

SMILES: COc1cc(C[C@H]2COC(=O)[C@@H]2Cc2ccc(O)c(OC)c2)ccc1O
- mutagenic call (Test System: CHINESE HAMSTER V79 CELLS, Strain/Indicator: V79 CELLS (HPRT)/6-THIOGUANINE, Metabolic Activation: NONE, Method: SUSPENSION/PLATE): inactive; negative
- mutagenic call (Test System: CHINESE HAMSTER V-79, Strain/Indicator: V-79(HPRT)/THIOGUANINE, Metabolic Activation: NONE): inactive; negative

SMILES: [Cl][Sn]([Cl])([Cl])[Cl]
- mutagenic call [2]: inactive; negative
- mutagenic call [4]: inactive; negative

SMILES: CC(=O)N=c1sn(C(C)=O)c2ccc([N+](=O)[O-])cc12
- mutagenic call (Test System: AMES SALMONELLA TYPHIMURIUM, Strain/Indicator: TA100, Metabolic Activation: S-9, Method: STANDARD PLATE): active; positive

SMILES: COc1cc2c(c3oc(=O)c4c(c13)CCOC4=O)[C@@H]1C=CO[C@@H]1O2
- mutagenic call (Test System: AMES SALMONELLA TYPHIMURIUM, Strain/Indicator: TA98, Metabolic Activation: RAT, LIVER, MICROSOMES, PHENOBARBITAL, Method: STANDARD PLATE): active; positive
- mutagenic call (Test System: AMES SALMONELLA TYPHIMURIUM, Strain/Indicator: TA98, Metabolic Activation: RAT, LIVER, S-9, PHENOBARBITAL, Method: STANDARD PLATE): active; positive
- mutagenic call [3]: active; positive
- mutagenic call (Test System: AMES SALMONELLA TYPHIMURIUM, Strain/Indicator: TA100, Metabolic Activation: RAT, LIVER, MICROSOMES, PHENOBARBITAL, Method: STANDARD PLATE): active; positive
- mutagenic call (Test System: AMES SALMONELLA TYPHIMURIUM, Strain/Indicator: TA100, Metabolic Activation: RAT, LIVER, S-9, PHENOBARBITAL, Method: PREINCUBATION): active; positive
- mutagenic call (Test System: UDS HUMAN FIBROBLASTS, Strain/Indicator: THY INCORP (NON-S-PHASE), Metabolic Activation: MOUSE, LIVER, S-9, Method: AUTORADIOGRAPHY): active; positive
- mutagenic call (Test System: UDS RODENT HEPATOCYTES, Strain/Indicator: THY INCORP (NON-S-PHASE), Method: AUTORADIOGRAPHY): active; positive

SMILES: CC(=O)CC1CCC(=O)CCC(=O)OC(CC(C)=O)CCC(O)CCC(=O)O1 (stereo not drawn)
- mutagenic call [6]: inactive; negative

SMILES: CN1CC=C(c2ccccc2)CC1
- mutagenic call [3]: inactive; negative
- mutagenic call (Test System: AMES SALMONELLA TYPHIMURIUM, Strain/Indicator: TA102, Metabolic Activation: NONE, Method: PREINCUBATION): inactive; negative

SMILES: [N-]=[N+]=NCC(=O)O
- mutagenic call (Test System: AMES SALMONELLA TYPHIMURIUM, Strain/Indicator: TA1530, Metabolic Activation: NONE, Method: STANDARD PLATE): inactive; negative

Reference: PubChem BioAssay AID1259407 (Chemical Carcinogenesis Research Information System (CCRIS), 2018)
